Test results taken from patent US12157730B2, “Heteroaryl derivative, method for producing same, and pharmaceutical composition comprising same as effective component” (VORONOI INC., priority 2019, dated 2024).

Legend:
Format in all cases: cell-based
[1] = target: T1, Ba/F3 cell EGFR L858R/T790M (Homo sapiens, UniProt P00533, L858R/T790M); test: Ba/F3 cell proliferation suppression, EGFR L858R/T790M; conditions: 72 hours after treatment, CellTiter-Glo
T1 construct: expressed in transfected cells; host or cells: Ba/F3
Experimental: (§1) The following experiment was carried out to evaluate the suppression activity of the compounds according to the present invention against proliferation of Ba/F3 and lung cancer cells which express EGFR mutations.
(§2) Of the cancer cell lines expressing the EGFR gene, A549 was cultured after adding 10% FBS (HyClone) to DMEM (Invitrogen), and RPMI-1640 (Invitrogen) with 10% FBS was used for the other cancer cells. For the Ba/F3 cells, RPMI-1640 with 10% FBS and 5 ng/ml IL-3 (R&D Systems) was used. The transduced Ba/F3 cells were cultured by adding 1 ug/ml puromycin (Invitrogen) to the same medium.
(§3) 24 hours before treatment with the compounds, 3000 to 5000 cells were distributed into each well of a white clear bottom 96 well plate (Corning). The compounds were diluted in dimethylsulfoxide (dilution ratio 3:1; 12 concentrations total) and injected 0.5 ul each for a final concentration of 0.3 nM to 50 um. As for measurement of live cells, 72 hours after treatment with the compounds, a CellTiter-Glo luminescent cell-viability reagent (Promega) was used to store the cells at room temperature for 10 minutes, followed by measurement of luminescence using a reader (SynergyNeo, Biotek). Each test was repeated three times.
(§4) The result was calculated as a cell growth ratio (%) compared to a control. The program GraphPad Prism version 5.0 was used to draw the graphs and calculate the GI50 values.

[2] = target: T2, Ba/F3 cell EGFR Exon20 ins NPH (Homo sapiens, UniProt P00533, INS773NPH); test: Ba/F3 cell proliferation suppression, EGFR Exon20 ins NPH; conditions: for Ba/F3 (NPH) Activity: GI50 class, Ba/F3 cell line with NPH inserted at Exon20 of EGFR, 72 hours
T2 construct: expressed in transfected cells; host or cells: Ba/F3
Method in brief: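 Cells were seeded 24 h before dosing and then treated for 72 hours with compound at final concentrations of 0.3 nM to 50 um. Live cells were measured by CellTiter-Glo luminescence, and GI50 values were derived from growth ratio relative to control across three repeats.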

Ba/F3 cell naive = test: Ba/F3 cell proliferation suppression, naive; conditions: Mus musculus, BaF3; 72 hours after treatment, CellTiter-Glo
Experimental: as §1, §2, §3, §4

| Structure (SMILES) | Ba/F3 (NPH) Activity [2] | other results |
| --- | --- | --- |
| C=CC(=O)Nc1cc(Nc2cc(N3OCC[C@@H]3c3cc(F)cc(F)c3)ncn2)c(OC)cc1N1CCC(N2C3CC2CN(CC)C3)CC1 [Example 249, N-(5-((6-((R)-3-(3,5-difluorophenyl)isoxazolidine-2-yl)pyrimidine-4-yl)amino)-2-(4-(3-ethyl-3,6-diazabicyclo[3.1.1]heptane-6-yl)piperidine-1-yl)-4-methoxyphenyl) acrylamide] | A (GI50 < 50 nM) | GI50 [1]: < 0.05 µM; GI50 ([2]; 72 hours after treatment, CellTiter-Glo): < 0.05 µM; GI50 (Ba/F3 cell naive): ≥ 5 µM |
| C=CC(=O)Nc1cc(Nc2cc(N3OCC[C@@H]3c3cccc(F)c3F)ncn2)c(OC)cc1N1CCC(N2CCN(C3CC3)[C@H](C)C2)CC1 [Example 176, N-(2-(4-((R)-4-cyclopropyl-3-methylpiperazine-1-yl)piperidine-1-yl)-5-((6-((R)-3-(2,3-difluorophenyl)isoxazolidine-2-yl)pyrimidine-4-yl)amino)-4-methoxyphenyl) acrylamide] | A (GI50 < 50 nM) | – |
| C=CC(=O)Nc1cc(Nc2cc(N3OCC[C@@H]3c3ccc(F)c(Cl)c3)ncn2)c(OC)cc1N1CCC(N2CCN(C3CCCC3)CC2)CC1 [Example 99, N-(5-((6-((R)-3-(3-chloro-4-fluorophenyl)isoxazolidine-2-yl)pyrimidine-4-yl)amino)-2-(4-(4-cyclopentylpiperazine-1-yl)piperidine-1-yl)-4-methoxyphenyl) acrylamide] | A (GI50 < 50 nM) | – |
| C=CC(=O)Nc1cc(Nc2cc(N3OCC[C@@H]3c3ccc(F)c(Cl)c3)ncn2)c(OC)cc1N1CCC(N2CCN(C3CC3)C(C)(C)C2)CC1 [Example 181, N-(5-((6-((R)-3-(3-chloro-4-fluorophenyl)isoxazolidine-2-yl)pyrimidine-4-yl)amino)-2-(4-(4-cyclopropyl-3,3-dimethylpiperazine-1-yl)piperidine-1-yl)-4-methoxyphenyl) acrylamide] | A (GI50 < 50 nM) | – |
| C=CC(=O)Nc1cc(Nc2cc(N3OCC[C@@H]3c3c(F)ccc(F)c3F)ncn2)c(OC)cc1N1CCC(N2C[C@@H](C)O[C@@H](C)C2)CC1 [compound 644, N-(2-(4-((2S,6R)-2,6-dimethylmorpholino)piperidine-1-yl)-4-methoxy-5-((6-((R)-3-(2,3,6-trifluorophenyl)isoxazolidine-2-yl)pyrimidine-4-yl)amino)phenyl)acrylamide] | A (GI50 < 50 nM) | – |
| C=CC(=O)Nc1cc(Nc2cc(N3OCC[C@@H]3c3ccc(F)c(F)c3F)ncn2)c(OC)cc1N1CC[C@@H](N(C)C)C1 [compound 622, N-(2-((R)-3-(dimethylamino)pyrolidine-1-yl)-4-methoxy-5-((6-((R)-3-(2,3,4-trifluorophenyl)isoxazolidine-2-yl)pyrimidine-4-yl)amino)phenyl)acrylamide] | C (500 nM ≤ GI50 < 5000 nM) | – |
| C=CC(=O)Nc1cc(Nc2cc(N3OCC[C@@H]3c3ccc(F)c(Cl)c3)ncn2)c(OC)cc1N1C[C@@H]2C[C@H]1CO2 [compound 902, N-(2-((1S,4S)-2-oxa-5-azabicyclo [2.2.1]heptane-5-yl)-5-((6-((R)-3-(3-chloro-4-fluorophenyl)isoxazolidine-2-yl)pyrimidine-4-yl)amino)-4-methoxyphenyl) acrylamide] | A (GI50 < 50 nM) | – |
| C=CC(=O)Nc1cc(Nc2cc(N3OCC[C@@H]3c3ccc(F)cc3F)ncn2)c(OC)cc1N1CCC(N2CCN(CC3CC3)CC2)CC1 [Example 203, N-(2-(4-(4-(cyclopropylmethyl)piperazine-1-yl)piperidine-1-yl)-5-((6-((R)-3-(2,4-difluorophenyl)isoxazolidine-2-yl)pyrimidine-4-yl)amino)-4-methoxyphenyl) acrylamide] | A (GI50 < 50 nM) | – |
| C=CC(=O)Nc1cc(Nc2cc(N3OCC[C@@H]3c3cc(F)cc(Cl)c3)ncn2)c(OC)cc1N1CCC(N2CCN(C3CC3)C[C@H]2C)CC1 [Example 159, N-(5-((6-((R)-3-(3-chloro-5-fluorophenyl)isoxazolidine-2-yl)pyrimidine-4-yl)amino)-2-(4-((R)-4-cyclopropyl-2-methylpiperazine-1-yl)piperidine-1-yl)-4-methoxyphenyl) acrylamide] | A (GI50 < 50 nM) | – |
| C=CC(=O)Nc1cc(Nc2cc(N3OCC[C@@H]3c3cccc(C(F)(F)F)c3)ncn2)c(OC)cc1N1CCC(N2CCN(C3CC3)CC2)CC1 [Example 148, N-(2-(4-(4-cyclopropylpiperazine-1-yl)piperidine-1-yl)-4-methoxy-5-((6-((R)-3-(3-(trifluoromethyl)phenyl)isoxazolidine-2-yl)pyrimidine-4-yl)amino)phenyl)acrylamide] | A (GI50 < 50 nM) | – |
| C=CC(=O)Nc1cc(Nc2cc(N3OCC[C@@H]3c3cc(F)cc(F)c3)ncn2)c(F)cc1N1CCC(N2CCN(C3CC3)CC2)CC1 [compound 533, N-(2-(4-(4-cyclopropylpiperazine-1-yl)piperidine-1-yl)-5-((6-((R)-3-(3,5-difluorophenyl)isoxazolidine-2-yl)pyrimidine-4-yl)amino)-4-fluorophenyl) acrylamide] | A (GI50 < 50 nM) | – |
| C=CC(=O)Nc1cc(Nc2cc(N3OCC[C@@H]3c3ccc(C)nc3)ncn2)c(OC)cc1N1CC[C@@H](N(C)C)C1 [Example 221, N-(2-((R)-3-(dimethylamino)pyrolidine-1-yl)-4-methoxy-5-((6-((R)-3-(6-methylpyridine-3-yl)isoxazolidine-2-yl)pyrimidine-4-yl)amino)phenyl) acrylamide] | B (50 nM ≤ GI50 < 500 nM) | – |
| C=CC(=O)Nc1cc(Nc2cc(N3OCC[C@@H]3c3cccc(Cl)c3C)ncn2)c(OC)cc1N1CCC(N2CCN(C(C)C)CC2)CC1 [compound 580, N-(5-((6-((R)-3-(3-chloro-2-methylphenyl)isoxazolidine-2-yl)pyrimidine-4-yl)amino)-2-(4-(4-isopropylpiperazine-1-yl)piperidine-1-yl)-4-methoxyphenyl) acrylamide] | A (GI50 < 50 nM) | – |
| C=CC(=O)Nc1cc(Nc2cc(N3OCC[C@@H]3c3ccc(F)cc3F)ncn2)c(OC)cc1N1CCC(N2CCN(C3CCCC3)CC2)CC1 [Example 205, N-(2-(4-(4-cyclopentylpiperazine-1-yl)piperidine-1-yl)-5-((6-((R)-3-(2,4-difluorophenyl)isoxazolidine-2-yl)pyrimidine-4-yl)amino)-4-methoxyphenyl) acrylamide] | A (GI50 < 50 nM) | – |
| C=CC(=O)Nc1cc(Nc2cc(N3OCC[C@@H]3c3cccc(Cl)c3C)ncn2)c(OC)cc1N1CCC(N2CCO[C@H](C)C2)CC1 [compound 530, N-(5-((6-((R)-3-(3-chloro-2-methylphenyl)isoxazolidine-2-yl)pyrimidine-4-yl)amino)-4-methoxy-2-(4-((R)-2-methylmorpholino)piperidine-1-yl)phenyl) acrylamide] | A (GI50 < 50 nM) | – |
| C=CC(=O)Nc1cc(Nc2cc(N3OCC[C@@H]3c3cc(F)ccc3F)ncn2)c(OC)cc1N1CCC(N2CCN(C3CCC3)CC2)CC1 [Example 77, N-(2-(4-(4-cyclobutylpiperazine-1-yl)piperidine-1-yl)-5-((6-((R)-3-(2,5-difluorophenyl)isoxazolidine-2-yl)pyrimidine-4-yl)amino)-4-methoxyphenyl) acrylamide] | A (GI50 < 50 nM) | – |
| C=CC(=O)Nc1cc(Nc2cc(N3OCC[C@@H]3c3ccc(Cl)c(F)c3)ncn2)c(OC)cc1N1CCC(N2CCN(CC)CC2)CC1 [Example 262, N-(5-((6-((R)-3-(4-chloro-3-fluorophenyl)isoxazolidine-2-yl)pyrimidine-4-yl)amino)-2-(4-(4-ethylpiperazine-1-yl)piperidine-1-yl)-4-methoxyphenyl) acrylamide] | A (GI50 < 50 nM) | – |
| C=CC(=O)Nc1cc(Nc2cc(N3OCC[C@@H]3c3cccc(Cl)c3Cl)ncn2)c(OC)cc1N1CCC(N2CCN(C)CC2)CC1 [compound 565, N-(5-((6-((R)-3-(2,3-dichlorophenyl)isoxazolidine-2-yl)pyrimidine-4-yl)amino)-4-methoxy-2-(4-(4-methylpiperazine-1-yl)piperidine-1-yl)phenyl) acrylamide] | A (GI50 < 50 nM) | – |
| C=CC(=O)Nc1cc(Nc2cc(N3OCC[C@@H]3Cc3ccccc3)ncn2)c(OC)cc1N1CCN(C2CCCC2)CC1 [compound 972, N-(5-((6-((S)-3-benzylisoxazolidine-2-yl)pyrimidine-4-yl)amino)-2-(4-cyclopentylpiperazine-1-yl)-4-methoxyphenyl) acrylamide] | A (GI50 < 50 nM) | – |
| C=CC(=O)Nc1cc(Nc2cc(N3OCC[C@@H]3Cc3cccc(Cl)c3Cl)ncn2)c(OC)cc1N1CCC(N2CCO[C@H](C)C2)CC1 [compound 1011, N-(5-((6-((S)-3-(2,3-dichlorobenzyl)isoxazolidine-2-yl)pyrimidine-4-yl)amino)-4-methoxy-2-(4-((R)-2-methylmorpholino)piperidine-1-yl)phenyl) acrylamide] | A (GI50 < 50 nM) | – |
